Data taken from patent US20140303546A1, “LASER ASSISTED DELIVERY OF FUNCTIONAL CELLS, PEPTIDES AND NUCLEOTIDES” (priority 2011, published 2014).

Tested on: Methicillin resistant Staphylococcus aureus (MRSA) biofilms
Assay: MRSA biofilm deep partial thickness wound model
Assay type: in vivo
Conditions: 24 hours after treatment; for reduction of MRSA counts in wounds: porcine wounds
Protocol: Rectangular wounds measuring (10 mm×7 mm×0.5 mm) were made on the paravertebral and thoracic area (porcine) with a specialized electrokeratome fitted with a 7 mm blade. Wounds were inoculated with 250 μL of a 10^6 CFU/ml suspension and covered individually with a polyurethane film dressing to allow for biofilm formation. After 24 hours, the dressings were removed and wounds were randomly assigned to one of the following treatment groups: 1) untreated control, 2) ErYag, 3) ErYag plus gentamycin or 3) gentamycin alone. After treatment the wounds were covered with a new polyurethane film dressing and after 24 hours wounds were recovered for MRSA counts using a well published scrub technique. Oxicillin resistance screening agar (ORSAB) was used to isolate MRSA from the wounds. All plates were incubated aerobically overnight (16-24 hours) at 37° C., after which the number of viable colonies will be counted.
Methicillin resistant Staphylococcus aureus (MRSA) biofilms were created using a deep partial thickness wound model (described above). Wounds were randomly assigned to one of the following treatment groups: 1) untreated control, 2) ErYag, 3) ErYag plus gentamycin or 3) gentamycin alone. Twenty four hours after treatment, MRSA was recovered. […] However in combination (Laser+gentamycin) were able to reduce MRSA counts by 1.72 Log CFU/ml.

[1] = in combination with ErYag laser

gentamycin
reduction of MRSA counts in wounds (gentamycin alone): 0.6 Log CFU/ml
reduction in MRSA [1]: 98.09%
reduction of MRSA counts in wounds [1]: 1.72 Log CFU/ml
